Data reported in patent publication US10703733B2, “MCL-1 inhibitors” (Gilead Sciences, Inc., priority 2018, dated 2020).

What was measured:
[1] = biological target: MCL-1/Bim interaction (recombinant human MCL-1 protein, residues 171-327; biotinylated human Bim peptide, residues 51-76) (Homo sapiens (Human), UniProt Q07820); assay: MCL-1/Bim Binding AlphaLISA Assay; details: 0.0625 nM 6xHis-Mcl-1 (171-327), 0.0625 nM biotinylated-Bim peptide
Summary of the method: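 AlphaLISA with 0.0625 nM His-tagged MCL-1 (171-327) and 0.0625 nM biotinylated Bim (51-76) in 20 mM Hepes pH 7.5, 150 mM NaCl, 0.002% Brij 35, 1 mM DTT, 0.01% BSA. Compound preincubated 1 h with MCL-1, then Bim 2 h, acceptor beads 1 h, donor beads 1 h; percent inhibition against DMSO and no-protein/no-peptide controls.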

SKBR3 cells = assay: SKBR3 Cell Viability Assay (CellTiter Glo); assay type: cell-based; details: Homo sapiens, SK-BR-3, 72 h, CellTiter Glo luminescence, read-out: MCL-1 CV SKBR3 EC50
Summary of the method: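 SKBR3 cells (6,000/well) in McCoy 5A + 10% FBS exposed to serially diluted compound for 72 h at 37° C., 5% CO2. Viability by CellTiter Glo luminescence; % inhibition normalized to DMSO (negative) and 10 μM puromycin (positive).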

Sequence of MCL-1/Bim interaction (recombinant human MCL-1 protein, residues 171-327; biotinylated human Bim peptide, residues 51-76) (Q07820 171-327): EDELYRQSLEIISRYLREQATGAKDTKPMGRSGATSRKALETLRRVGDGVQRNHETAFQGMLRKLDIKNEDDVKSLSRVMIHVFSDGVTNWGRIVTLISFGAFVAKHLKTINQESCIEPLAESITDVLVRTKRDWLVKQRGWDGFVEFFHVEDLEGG

| Structure (SMILES) | IC50 [1] [nM] | EC50 (SKBR3 cells) [nM] |
| --- | --- | --- |
| COCC1(NC(=O)N[S@@]2(=O)=NC(=O)c3ccc4c(c3)N(C[C@@H]3CC[C@H]3[C@@H](OC)/C=C/C[C@H](C)C2)C[C@@]2(CCCc3cc(Cl)ccc32)CO4)CC1 [Example 131] | 0.046 | 162 |
| COCCNC(=O)N[S@@]1(=O)=NC(=O)c2ccc3c(c2)N(C[C@@H]2CC[C@H]2[C@@H](OC)/C=C/C[C@H](C)C1)C[C@@]1(CCCc2cc(Cl)ccc21)CO3 [Example 132] | 0.038 | 72 |
| CO[C@H]1/C=C/C[C@H](C)[C@@H](C)[S@@](=O)(NC(=O)CO[C@H]2CCOC[C@H]2F)=NC(=O)c2ccc3c(c2)N(C[C@@H]2CC[C@H]21)C[C@@]1(CCCc2cc(Cl)ccc21)CO3 [Example 133] | 0.051 | 130 |
| CCn1cc(C(=O)N[S@@]2(=O)=NC(=O)c3ccc4c(c3)N(C[C@@H]3CC[C@H]3[C@@H](OC)/C=C/C[C@H](C)C2)C[C@@]2(CCCc3cc(Cl)ccc32)CO4)cn1 [Example 134] | 0.072 | 59.6 |
| CO[C@H]1/C=C/C[C@H](C)C[S@@](=O)(NC(=O)c2cc3n(c2)CC=C3)=NC(=O)c2ccc3c(c2)N(C[C@@H]2CC[C@H]21)C[C@@]1(CCCc2cc(Cl)ccc21)CO3 [Example 135] | 0.213 | 132 |
| CO[C@H]1/C=C/C[C@H](C)C[S@@](=O)(NC(=O)c2cc3n(c2)CCC3)=NC(=O)c2ccc3c(c2)N(C[C@@H]2CC[C@H]21)C[C@@]1(CCCc2cc(Cl)ccc21)CO3 [Example 136] | 0.183 | 76.4 |
| CO[C@H]1/C=C/C[C@H](C)[C@@H](C)[S@@](=O)(NC(=O)c2cc3n(c2)CCOC3)=NC(=O)c2ccc3c(c2)N(C[C@@H]2CC[C@H]21)C[C@@]1(CCCc2cc(Cl)ccc21)CO3 [Example 137] | 0.491 | 104 |
| CO[C@H]1/C=C/C[C@H](C)[C@@H](C)[S@@](=O)(NC(=O)c2cnn(C)c2)=NC(=O)c2ccc3c(c2)N(C[C@@H]2CC[C@H]21)C[C@@]1(CCCc2cc(Cl)ccc21)CO3 [Example 138] | 0.112 | 60.5 |
| CO[C@H]1/C=C/C[C@H](C)C[S@@](=O)(NC(=O)c2cc3n(c2)CCOC3)=NC(=O)c2ccc3c(c2)N(C[C@@H]2CC[C@H]21)C[C@@]1(CCCc2cc(Cl)ccc21)CO3 [Example 139] | 0.116 | 94.1 |
| CO[C@H]1/C=C/C[C@H](C)C[S@@](=O)(NC(=O)C2CC(C)(O)C2)=NC(=O)c2ccc3c(c2)N(C[C@@H]2CC[C@H]21)C[C@@]1(CCCc2cc(Cl)ccc21)CO3 (some centres unmarked) [Example 140] | 0.043 | 38.6 |
| CO[C@H]1/C=C/C[C@H](C)C[S@@](=O)(NC(=O)CCc2cnn(C)c2)=NC(=O)c2ccc3c(c2)N(C[C@@H]2CC[C@H]21)C[C@@]1(CCCc2cc(Cl)ccc21)CO3 [Example 142] | 0.097 | 416 |
| CO[C@H]1/C=C/C[C@H](C)C[S@@](=O)(NC(=O)NC2CC2)=NC(=O)c2ccc3c(c2)N(C[C@@H]2CC[C@H]21)C[C@@]1(CCCc2cc(Cl)ccc21)CO3 [Example 144] | 0.05 | 50.8 |
| CO[C@H]1/C=C/C[C@H](C)C[S@@](=O)(NC(=O)c2cc3n(c2)C(=O)CCC3)=NC(=O)c2ccc3c(c2)N(C[C@@H]2CC[C@H]21)C[C@@]1(CCCc2cc(Cl)ccc21)CO3 [Example 145] | 0.037 | 147 |
| CO[C@H]1/C=C/C[C@H](C)C[S@@](=O)(NC(=O)c2csc(C)n2)=NC(=O)c2ccc3c(c2)N(C[C@@H]2CC[C@H]21)C[C@@]1(CCCc2cc(Cl)ccc21)CO3 [Example 146] | 0.062 | 185 |
| CO[C@H]1/C=C/C[C@H](C)C[S@@](=O)(NC(=O)c2ccn(C)c2)=NC(=O)c2ccc3c(c2)N(C[C@@H]2CC[C@H]21)C[C@@]1(CCCc2cc(Cl)ccc21)CO3 [Example 147] | 0.051 | 111 |
| CO[C@H]1/C=C/C[C@H](C)C[S@@](=O)(NC(=O)c2cnn(C)c2)=NC(=O)c2ccc3c(c2)N(C[C@@H]2CC[C@H]21)C[C@@]1(CCCc2cc(Cl)ccc21)CO3 [Example 148] | 0.043 | 37.2 |
| CO[C@H]1/C=C/C[C@H](C)C[S@@](=O)(NC(=O)N[C@H]2C[C@@H](OC)C2)=NC(=O)c2ccc3c(c2)N(C[C@@H]2CC[C@H]21)C[C@@]1(CCCc2cc(Cl)ccc21)CO3 [Example 149] | 0.109 | 95.3 |
| CO[C@H]1/C=C/C[C@H](C)C[S@@](=O)(NC(=O)N[C@H]2C[C@H](OC)C2)=NC(=O)c2ccc3c(c2)N(C[C@@H]2CC[C@H]21)C[C@@]1(CCCc2cc(Cl)ccc21)CO3 [Example 150] | 0.071 | 39.3 |
| CCn1cc(C(=O)N[S@@]2(=O)=NC(=O)c3ccc4c(c3)N(C[C@@H]3CC[C@H]3[C@@H](OC)/C=C/C[C@H](C)[C@H]2C)C[C@@]2(CCCc3cc(Cl)ccc32)CO4)cn1 [Example 153] | 0.086 | 69.5 |

| Structure (SMILES) | IC50 [1] [nM] | EC50 (SKBR3 cells) [nM] |
| --- | --- | --- |
| CO[C@H]1/C=C/C[C@H](C)C[S@@](=O)(NC(=O)N[C@@H]2CCOC2)=NC(=O)c2ccc3c(c2)N(C[C@@H]2CC[C@H]21)C[C@@]1(CCCc2cc(Cl)ccc21)CO3 [Example 155] | 0.06 | 43 |
| CO[C@H]1/C=C/C[C@H](C)C[S@@](=O)(NC(=O)c2ccn(C3CC3)c2)=NC(=O)c2ccc3c(c2)N(C[C@@H]2CC[C@H]21)C[C@@]1(CCCc2cc(Cl)ccc21)CO3 [Example 156] | 0.111 | 145 |
| CO[C@H]1/C=C/C[C@H](C)C[S@@](=O)(NC(=O)c2ccc3c(c2)COCC3)=NC(=O)c2ccc3c(c2)N(C[C@@H]2CC[C@H]21)C[C@@]1(CCCc2cc(Cl)ccc21)CC3 [Example 157] | 0.234 | 64.8 |
| CO[C@H]1/C=C/C[C@H](C)C[S@@](=O)(NC(=O)c2cc3c([nH]2)CCOC3)=NC(=O)c2ccc3c(c2)N(C[C@@H]2CC[C@H]21)C[C@@]1(CCCc2cc(Cl)ccc21)CO3 [Example 158] | 0.135 | 47.4 |
| CO[C@H]1/C=C/C[C@H](C)C[S@@](=O)(NC(=O)N[C@H]2C[C@H]2C)=NC(=O)c2ccc3c(c2)N(C[C@@H]2CC[C@H]21)C[C@@]1(CCCc2cc(Cl)ccc21)CO3 [Example 159] | 0.087 | 144 |
| CO[C@H]1/C=C/C[C@H](C)C[S@@](=O)(NC(=O)N[C@H]2C[C@@H]2OC)=NC(=O)c2ccc3c(c2)N(C[C@@H]2CC[C@H]21)C[C@@]1(CCCc2cc(Cl)ccc21)CO3 [Example 160] | 0.031 | 35 |
| CO[C@H]1/C=C/C[C@H](C)C[S@@](=O)(NC(=O)N[C@H]2CC2(F)F)=NC(=O)c2ccc3c(c2)N(C[C@@H]2CC[C@H]21)C[C@@]1(CCCc2cc(Cl)ccc21)CO3 [Example 161] | 0.025 | 168 |
| CO[C@H]1/C=C/C[C@H](C)C[S@@](=O)(NC(=O)N[C@@H]2C[C@@H]2C)=NC(=O)c2ccc3c(c2)N(C[C@@H]2CC[C@H]21)C[C@@]1(CCCc2cc(Cl)ccc21)CO3 [Example 162] | 0.18 | 136 |
| CO[C@H]1/C=C/C[C@H](C)C[S@@](=O)(NC(=O)c2cc3ccncn3c2)=NC(=O)c2ccc3c(c2)N(C[C@@H]2CC[C@H]21)C[C@@]1(CCCc2cc(Cl)ccc21)CO3 [Example 163] | 0.263 | 98.7 |
| CO[C@H]1/C=C/C[C@H](C)C[S@@](=O)(NC(=O)c2cn(C)nc2C2CC2)=NC(=O)c2ccc3c(c2)N(C[C@@H]2CC[C@H]21)C[C@@]1(CCCc2cc(Cl)ccc21)CO3 [Example 164] | 0.141 | 106 |
| CO[C@H]1/C=C/C[C@H](C)C[S@@](=O)(NC(=O)[C@H]2C[C@@](C)(O)C2)=NC(=O)c2ccc3c(c2)N(C[C@@H]2CC[C@H]21)C[C@@]1(CCCc2cc(Cl)ccc21)CO3 [Example 165] | 0.035 | 45.5 |
| CO[C@H]1/C=C/C[C@H](C)[C@@H](C)[S@@](=O)(NC(=O)[C@H]2C[C@@](C)(O)C2)=NC(=O)c2ccc3c(c2)N(C[C@@H]2CC[C@H]21)C[C@@]1(CCCc2cc(Cl)ccc21)CO3 [Example 166] | 0.067 | 79.8 |
| CO[C@H]1/C=C/C[C@H](C)C[S@@](=O)(NC(=O)c2cc3n(c2)C[C@H](C)OC3)=NC(=O)c2ccc3c(c2)N(C[C@@H]2CC[C@H]21)C[C@@]1(CCCc2cc(Cl)ccc21)CO3 [Example 167] | 0.141 | 58.6 |
| CO[C@H]1/C=C/C[C@H](C)C[S@@](=O)(NC(=O)c2cc3n(c2)C[C@@H](C)OC3)=NC(=O)c2ccc3c(c2)N(C[C@@H]2CC[C@H]21)C[C@@]1(CCCc2cc(Cl)ccc21)CO3 [Example 168] | 0.222 | 74.2 |
| CO[C@H]1/C=C/C[C@H](C)C[S@@](=O)(NC(=O)C2CC(C)(OC)C2)=NC(=O)c2ccc3c(c2)N(C[C@@H]2CC[C@H]21)C[C@@]1(CCCc2cc(Cl)ccc21)CO3 (some centres unmarked) [Example 169] | 0.048 | 61 |
| CO[C@H]1CCC[C@H](C)C[S@@](=O)(NC(=O)NC2CC2)=NC(=O)c2ccc3c(c2)N(C[C@@H]2CC[C@H]21)C[C@@]1(CCCc2cc(Cl)ccc21)CO3 [Example 170] | 0.06 | 210 |
| CO[C@H]1/C=C/C[C@H](C)C[S@@](=O)(NC(=O)N[C@H]2C[C@@H]2CO)=NC(=O)c2ccc3c(c2)N(C[C@@H]2CC[C@H]21)C[C@@]1(CCCc2cc(Cl)ccc21)CO3 [Example 171] | 0.033 | 130 |
| CO[C@H]1/C=C/C[C@H](C)C[S@@](=O)(NC(=O)N[C@H]2C[C@](C)(O)C2)=NC(=O)c2ccc3c(c2)N(C[C@@H]2CC[C@H]21)C[C@@]1(CCCc2cc(Cl)ccc21)CO3 [Example 172] | 0.022 | 125 |
